PubChem BioAssay AID2060906 (Molecular Pharmacology Branch, DTP, NCI, 2025)

System: 485176-168-R4-J1-PDC complex spheroid growth
Test: Anticancer human tumor 485176-168-R4-J1-PDC patient-derived pancreatic adenocarcinoma cell line growth inhibition [RAS]
Settings: for viability, T/C: stronger effect = lower value
Summary of the method: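 Multi-cell-type spheroids: tumor cells plus HUVEC endothelial cells and mesenchymal stem cells. RAS-pathway inhibitors were combined with targeted agents, each dosed in half-log steps down from clinical Cmax, or from 10 microM when Cmax was unknown.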

[1] = curve of first compound, second compound 0.0316 µM
[2] = curve of first compound, second compound 0.1 µM
[3] = curve of first compound, second compound 0.316 µM
[4] = curve of first compound, second compound 1 µM
[5] = second compound 0.0316 µM, first compound 0.0316 µM
[6] = second compound 0.0316 µM, first compound 0.1 µM
[7] = second compound 0.0316 µM, first compound 0.316 µM
[8] = second compound 0.0316 µM, first compound 1 µM
[9] = second compound 0.1 µM, first compound 0.0316 µM
[10] = second compound 0.1 µM, first compound 0.1 µM
[11] = second compound 0.1 µM, first compound 0.316 µM
[12] = second compound 0.1 µM, first compound 1 µM
[13] = second compound 0.316 µM, first compound 0.0316 µM
[14] = second compound 0.316 µM, first compound 0.1 µM
[15] = second compound 0.316 µM, first compound 0.316 µM
[16] = second compound 0.316 µM, first compound 1 µM
[17] = second compound 1 µM, first compound 0.0316 µM
[18] = second compound 1 µM, first compound 0.1 µM
[19] = second compound 1 µM, first compound 0.316 µM
[20] = second compound 1 µM, first compound 1 µM
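Note: spheroids exposed to compounds for seven days before readout.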
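Throughout, for viability, T/C: luminescence viability expressed relative to DMSO vehicle wells set as 100%.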

With `C=CC(=O)N1CCN(c2nc(OCC3CCCN3C)nc3c(F)c(-c4nc(N)cc(C)c4C(F)(F)F)c(Cl)cc23)C(C)C1` (configuration not stated) + C#Cc1c(F)ccc2cc(O)cc(-c3ncc4c(N5CC6CCC(C5)N6)nc(OCC56CCCN5CC(F)C6)nc4c3F)c12 the IC50 [1] was > 1000 nM, the IC50 [2] was > 1000 nM and the IC50 [3] was > 1000 nM. For the same compound, the IC50 [4] was > 1000 nM, the IC50 (curve of first compound, second compound 3.16 µM) was > 1000 nM and the IC50 (curve of first compound, second compound 10 µM) was > 1000 nM. It also gave a viability, T/C (second compound 0.0316 µM, first compound 0.00316 µM) of 103%, a viability, T/C (second compound 0.0316 µM, first compound 0.01 µM) of 88.9% and a viability, T/C [5] of 88.5%. It also gave a viability, T/C [6] of 105%, a viability, T/C [7] of 96.8% and a viability, T/C [8] of 103%. For the same compound, the viability, T/C (second compound 0.1 µM, first compound 0.00316 µM) was 117%, the viability, T/C (second compound 0.1 µM, first compound 0.01 µM) was 109% and the viability, T/C [9] was 99.2%. For the same compound, the viability, T/C [10] was 102%, the viability, T/C [11] was 108% and the viability, T/C [12] was 103%. It also gave a viability, T/C (second compound 0.316 µM, first compound 0.00316 µM) of 86.8%, a viability, T/C (second compound 0.316 µM, first compound 0.01 µM) of 93.6% and a viability, T/C [13] of 103%. It also gave a viability, T/C [14] of 103%, a viability, T/C [15] of 87.3% and a viability, T/C [16] of 89.9%. It also gave a viability, T/C (second compound 1 µM, first compound 0.00316 µM) of 115%, a viability, T/C (second compound 1 µM, first compound 0.01 µM) of 83.1% and a viability, T/C [17] of 77.5%. For the same compound, the viability, T/C [18] was 101%, the viability, T/C [19] was 97.1% and the viability, T/C [20] was 86.1%. For the same compound, the viability, T/C (second compound 3.16 µM, first compound 0.00316 µM) was 115%, the viability, T/C (second compound 3.16 µM, first compound 0.01 µM) was 92.2% and the viability, T/C (second compound 3.16 µM, first compound 0.0316 µM) was 85.3%. It also gave a viability, T/C (second compound 3.16 µM, first compound 0.1 µM) of 104%, a viability, T/C (second compound 3.16 µM, first compound 0.316 µM) of 98.1% and a viability, T/C (second compound 3.16 µM, first compound 1 µM) of 70.3%. The viability, T/C (second compound 10 µM, first compound 0.00316 µM) was 94.1%, the viability, T/C (second compound 10 µM, first compound 0.01 µM) was 81.8% and the viability, T/C (second compound 10 µM, first compound 0.0316 µM) was 95.9%. The viability, T/C (second compound 10 µM, first compound 0.1 µM) was 94.6%, the viability, T/C (second compound 10 µM, first compound 0.316 µM) was 95.2% and the viability, T/C (second compound 10 µM, first compound 1 µM) was 94.8%.
For `NC1c2ccccc2OC12CCN(c1cnc3c(N4CCCc5ncccc54)n[nH]c3n1)CC2` (configuration not stated), the viability, T/C (compound 0.1 µM) was 79.2% [middle of 4 runs], the viability, T/C (compound 0.316 µM) was 86.1% [middle of 4 runs] and the viability, T/C (compound 1 µM) was 85.1% [middle of 4 runs]. The viability, T/C (compound 3.16 µM) was 84.5% [middle of 4 runs], the viability, T/C (compound 10 µM) was 72.2% [middle of 4 runs] and the IC50 (curve of compound) was > 10000 nM.
`CC(Nc1ccc2c(c1)OCCn1cc(N3C(=O)OCC3C(F)F)nc1-2)C(N)=O` (configuration not stated) + CCn1c(-c2cccnc2C(C)OC)c2c3cc(ccc31)N1CCOC(CC(NC(=O)C(C(C)C)N(C)C(=O)C3(F)CCN(C(=O)C#CC(C)(C)N(C)C)CC3)C(=O)N3CCCC(N3)C(=O)OCC(C)(C)C2)C1 showed an IC50 (curve of first compound, second compound 0.000949 µM) of 8610 nM, an IC50 (curve of first compound, second compound 0.003 µM) of 8690 nM and an IC50 (curve of first compound, second compound 0.00949 µM) of 9140 nM. For the same compound, the IC50 (curve of first compound, second compound 0.03 µM) was > 10000 nM, the IC50 (curve of first compound, second compound 0.0949 µM) was > 10000 nM and the IC50 (curve of first compound, second compound 0.3 µM) was 5260 nM. It also gave a viability, T/C (second compound 0.000949 µM, first compound 0.0316 µM) of 92.9%, a viability, T/C (second compound 0.000949 µM, first compound 0.1 µM) of 73.4% and a viability, T/C (second compound 0.000949 µM, first compound 0.316 µM) of 93.6%. It also gave a viability, T/C (second compound 0.000949 µM, first compound 1 µM) of 77.1%, a viability, T/C (second compound 0.000949 µM, first compound 3.16 µM) of 84.2% and a viability, T/C (second compound 0.000949 µM, first compound 10 µM) of 45%. The viability, T/C (second compound 0.003 µM, first compound 0.0316 µM) was 97.2%, the viability, T/C (second compound 0.003 µM, first compound 0.1 µM) was 86.6% and the viability, T/C (second compound 0.003 µM, first compound 0.316 µM) was 85.7%. For the same compound, the viability, T/C (second compound 0.003 µM, first compound 1 µM) was 74.5%, the viability, T/C (second compound 0.003 µM, first compound 3.16 µM) was 85.4% and the viability, T/C (second compound 0.003 µM, first compound 10 µM) was 45.2%. For the same compound, the viability, T/C (second compound 0.00949 µM, first compound 0.0316 µM) was 94.4%, the viability, T/C (second compound 0.00949 µM, first compound 0.1 µM) was 79.2% and the viability, T/C (second compound 0.00949 µM, first compound 0.316 µM) was 77.6%. For the same compound, the viability, T/C (second compound 0.00949 µM, first compound 1 µM) was 70.9%, the viability, T/C (second compound 0.00949 µM, first compound 3.16 µM) was 98.3% and the viability, T/C (second compound 0.00949 µM, first compound 10 µM) was 47.1%. For the same compound, the viability, T/C (second compound 0.03 µM, first compound 0.0316 µM) was 76.8%, the viability, T/C (second compound 0.03 µM, first compound 0.1 µM) was 94.1% and the viability, T/C (second compound 0.03 µM, first compound 0.316 µM) was 88.9%. For the same compound, the viability, T/C (second compound 0.03 µM, first compound 1 µM) was 73.4%, the viability, T/C (second compound 0.03 µM, first compound 3.16 µM) was 76.1% and the viability, T/C (second compound 0.03 µM, first compound 10 µM) was 56.5%. For the same compound, the viability, T/C (second compound 0.0949 µM, first compound 0.0316 µM) was 90.4%, the viability, T/C (second compound 0.0949 µM, first compound 0.1 µM) was 67.9% and the viability, T/C (second compound 0.0949 µM, first compound 0.316 µM) was 75.8%. For the same compound, the viability, T/C (second compound 0.0949 µM, first compound 1 µM) was 51.9%, the viability, T/C (second compound 0.0949 µM, first compound 3.16 µM) was 89.6% and the viability, T/C (second compound 0.0949 µM, first compound 10 µM) was 57%. For the same compound, the viability, T/C (second compound 0.3 µM, first compound 0.0316 µM) was 61.5%, the viability, T/C (second compound 0.3 µM, first compound 0.1 µM) was 73.4% and the viability, T/C (second compound 0.3 µM, first compound 0.316 µM) was 60.4%. For the same compound, the viability, T/C (second compound 0.3 µM, first compound 1 µM) was 61.5%, the viability, T/C (second compound 0.3 µM, first compound 3.16 µM) was 59.2% and the viability, T/C (second compound 0.3 µM, first compound 10 µM) was 39.9%.
For `CC(C)NCC(C(=O)N1CCN(c2ncnc3c2C(C)CC3O)CC1)c1ccc(Cl)cc1` (configuration not stated) + C=CC(=O)N1CCN(c2nc(OCC3CCCN3C)nc3c(F)c(-c4nc(N)cc(C)c4C(F)(F)F)c(Cl)cc23)C(C)C1, the IC50 (curve of first compound, second compound 0.00316 µM) was 1690 nM, the IC50 (curve of first compound, second compound 0.01 µM) was 2420 nM and the IC50 [1] was 1630 nM. The IC50 [2] was 1540 nM, the IC50 [3] was 2370 nM and the IC50 [4] was 1340 nM. For the same compound, the viability, T/C (second compound 0.00316 µM, first compound 0.0316 µM) was 93.7%, the viability, T/C (second compound 0.00316 µM, first compound 0.1 µM) was 97.9% and the viability, T/C (second compound 0.00316 µM, first compound 0.316 µM) was 78%. The viability, T/C (second compound 0.00316 µM, first compound 1 µM) was 57.4%, the viability, T/C (second compound 0.00316 µM, first compound 3.16 µM) was 42.8% and the viability, T/C (second compound 0.00316 µM, first compound 10 µM) was 35.3%. For the same compound, the viability, T/C (second compound 0.01 µM, first compound 0.0316 µM) was 104%, the viability, T/C (second compound 0.01 µM, first compound 0.1 µM) was 83.3% and the viability, T/C (second compound 0.01 µM, first compound 0.316 µM) was 79%. For the same compound, the viability, T/C (second compound 0.01 µM, first compound 1 µM) was 62.4%, the viability, T/C (second compound 0.01 µM, first compound 3.16 µM) was 43.8% and the viability, T/C (second compound 0.01 µM, first compound 10 µM) was 34.2%. The viability, T/C [5] was 101%, the viability, T/C [6] was 83.5% and the viability, T/C [7] was 70.7%. For the same compound, the viability, T/C [8] was 53.2%, the viability, T/C (second compound 0.0316 µM, first compound 3.16 µM) was 45.3% and the viability, T/C (second compound 0.0316 µM, first compound 10 µM) was 30.5%. It also gave a viability, T/C [9] of 109%, a viability, T/C [10] of 82.7% and a viability, T/C [11] of 69.2%. For the same compound, the viability, T/C [12] was 55%, the viability, T/C (second compound 0.1 µM, first compound 3.16 µM) was 45.2% and the viability, T/C (second compound 0.1 µM, first compound 10 µM) was 29.9%. It also gave a viability, T/C [13] of 106%, a viability, T/C [14] of 102% and a viability, T/C [15] of 79.3%. The viability, T/C [16] was 65.2%, the viability, T/C (second compound 0.316 µM, first compound 3.16 µM) was 46.1% and the viability, T/C (second compound 0.316 µM, first compound 10 µM) was 27.3%. The viability, T/C [17] was 108%, the viability, T/C [18] was 93.9% and the viability, T/C [19] was 79.1%. It also gave a viability, T/C [20] of 50.5%, a viability, T/C (second compound 1 µM, first compound 3.16 µM) of 41% and a viability, T/C (second compound 1 µM, first compound 10 µM) of 28.9%.
